The text below walks through data of patent US5618815A, “1,9-bridged thiazolo[3,2-a]quinoline derivatives” (Bayer Aktiengesellschaft, priority 1994, dated 1997).

Broadly, the MIC is the smallest concentration in the dilution series that meets the test's criterion for growth inhibition.

Format in all cases: cell-based
Experiment [1] relates to Enterococcus faecalis. The experiment can be described thus: MIC by serial dilution (agar), Enterococcus faecalis. The settings on record: 20 h, 37° C., about 20 hours. Here is the method: (§1) The minimum inhibitory concentrations (MICs) of the compounds according to the invention were determined by serial dilution methods on Iso-Sensitest agar (Oxoid). For each test substance a series of agar plates was, prepared, which plates contained decreasing concentrations of the active compound, with twofold dilution in each case. The agar plates were inoculated with a Multipoint inoculator (Denley). Inoculation was carried out using overnight cultures of the pathogens, which had been diluted beforehand so that each inoculation point contained about 10^4 colony-forming particles. The inoculated agar plates were incubated at 37° C., and the growth of the microorganisms was read off after about 20 hours. The MIC (μg/ml) indicates the lowest concentration of active compound at which no growth-could be perceived with the naked eye. In the table below, the MICs of some of the compounds according to the invention are listed.

Experiment [2] relates to Micrococcus luteus. The experiment can be described thus: MIC by serial dilution (agar), Micrococcus luteus. The settings on record: strain 9341, Iso-Sensitest agar, 37° C., about 20 hours. On the procedure:
as §1

Experiment [3] relates to Staphylococcus aureus. The experiment can be described thus: MIC by serial dilution (agar), Staphylococcus aureus. The settings on record: 37° C., about 20 hours. Here is the method: as §1
The mark [4] stands for this setting: strain 27 101, Iso-Sensitest agar.
[5] abbreviates: strain 9790, Iso-Sensitest agar.
[6] abbreviates: 20 h, strain 133, Iso-Sensitest agar.
Where [7] appears, read: 20 h, strain ICB 25701, Iso-Sensitest agar.
The mark [8] stands for this setting: 20 h, strain ICB 25768, Iso-Sensitest agar.
Setting [9] is: ATCC29123, 20 h, strain ATCC 29123, Iso-Sensitest agar.

≈ marks a conversion by molar mass, not a printed value.

In the case of `CNC1C=CCC2CN(c3c(F)cc4c(=O)c(C(=O)O)c5scc6n5c4c3N(C)C6)CC21` (stereo not drawn) [Example 3, 7-Fluoro-8-(2-methylamino-8-azabicyclo[4.3.0]non-3-en-8-yl)-5-oxo-9,1-[(N-methylimino)-methano]-5H-thiazolo-[3,2-a]quinoline-4-carboxylic acid], the MIC in experiment [1] (setting [4]) is 0.125 µg/mL (≈ 0.275 µM); in experiment [1] (setting [5]), 0.125 µg/mL (≈ 0.275 µM); in experiment [2], 0.125 µg/mL (≈ 0.275 µM); in experiment [3] (setting [6]) it was at most 0.015 µg/mL; in experiment [3] (setting [7]), 0.125 µg/mL (≈ 0.275 µM); in experiment [3] (setting [8]), 0.25 µg/mL (≈ 0.55 µM). The MIC in experiment [3] (setting [9]) was at most 0.015 µg/mL.

For `CC1C=CC(N)C2CN(c3c(F)cc4c(=O)c(C(=O)O)c5scc6n5c4c3N(C)C6)CC12` (stereo not drawn) [Example 5, 8-(2-Amino-5-methyl-8-azabicyclo[4.3.0]non-3-en-8-yl)-7-fluoro-5-oxo-9,1-[(N-methylimino)methano]-5H-thiazolo-[3,2-a]quinoline-4-carboxylic acid], the minimum inhibitory concentration (MIC) in experiment [1] (setting [4]) is 0.062 µg/mL (≈ 0.136 µM); in experiment [1] (setting [5]), 0.062 µg/mL (≈ 0.136 µM); in experiment [2], 0.062 µg/mL (≈ 0.136 µM); in experiment [3] (setting [6]), at most 0.015 µg/mL; in experiment [3] (setting [7]), 0.125 µg/mL (≈ 0.275 µM); in experiment [3] (setting [8]) it was 0.5 µg/mL (≈ 1.1 µM). In experiment [3] (setting [9]), this compound came in with an MIC of at most 0.015 µg/mL.

Turning to `CNCC1C=CCC2CN(c3c(F)cc4c(=O)c(C(=O)O)c5scc6n5c4c3N(C)C6)CC12` (stereo not drawn) [Example 7, 7-Fluoro-8-(2-methylamonomethyl-8-azabicyclo[4.3.0]non-3-en-8-yl)-5-oxo-9,1-[(N-methylimino)-methano]-5H-thiazolo-[3,2-a]quinoline-4-carboxylic acid], the MIC in experiment [1] (setting [4]) is 0.126 µg/mL (≈ 0.269 µM); in experiment [1] (setting [5]), 0.125 µg/mL (≈ 0.267 µM); in experiment [2], 0.25 µg/mL (≈ 0.534 µM); in experiment [3] (setting [6]) it was at most 0.015 µg/mL; in experiment [3] (setting [7]) it was 0.25 µg/mL (≈ 0.534 µM); in experiment [3] (setting [8]), 1 µg/mL (≈ 2.13 µM). Moreover, in experiment [3] (setting [9]), the minimal inhibitory concentration (MIC) was at most 0.015 µg/mL.
